Test results published in patent US5843959A, “Methods and bicyclic polyamine compositions for the treatment of inflammation” (University of Florida Research Foundation, Inc., priority 1997, dated 1998).
Where “and” joins values, the source holds several entries; their conditions need not be identical. Identical values can stand only once. Entries after “also recorded” stand apart in the source; their conditions may differ.

Assays:
[1] = test system: adjuvant-induced arthritis; assay: Adjuvant-induced arthritis model in Lewis rats (Table 7); details: p.o. 5 days, DiPIPs 100 mg/kg, Voltaren and indomethacin 6 mg/kg
Procedure: Four groups consisting of 6 male Lewis rats weighing 150-200 g were injected subcutaneously at the base of the tail with 0.1 ml of CFA. Drugs to be assayed were administered 5 days beginning on the day of the adjuvant injection. The paw volume of the right and left rear paw of each rat were measured on the day of adjuvant injection and at regular intervals for 30 days thereafter.
The emulsion was injected subcutaneously at the base of the tail and induced the arthritic state. Measurements of paw volume were made for 30 days to monitor paw swelling. Drug treatment began on Day 0.
Four groups consisting of 10 male Lewis rats weighing 150-200 g were injected subcutaneously at the base of the tail with 0.1 ml of CFA. Drugs to be assayed were administered for 5 days beginning on the day of the adjuvant injection.

[2] = test system: phenylquinone (P.Q.) writhing; assay: Analgesic activity, phenylquinone writhing; type: in vivo, mouse (ICR)
Procedure: The method of Siegmund et al [Proc. Soc. Exp. Biol. Med., Vol. 95, pages 729-731 (1957)] was used to measure the analgesic activity of PIP[4,4,4]. Groups of 10 male ICR mice weighing 22±2 g were employed. Various doses of test compound, dissolved in a vehicle of distilled water, were administered intraperitoneally. The control group received vehicle alone. […] The mean±SEM number of writhes in each treatment group was calculated and unpaired Student's t test was applied for comparison between vehicle and treated groups. Differences were considered significant when P<0.05.

[3] = test system: carrageenan-induced edema in rat paw; assay: Inhibition of carrageenan-induced paw edema in rats
[4] = test system: type II collagen-induced arthritis; assay: Prevention of type II collagen-induced arthritis in mice; type: in vivo, mouse (DBA/1J)
Procedure: The purpose of this study was to test PIP[4,4,4] in an experimental model of arthritis in DBA/1J mice by observing the onset, duration and remission of inflammation utilizing type II collagen. Twenty male DBA/1J mice, equally divided into two groups of ten animals, were immunized with a single intradermal injection of native type II chick collagen (100 μg/animal, intradermally) in Complete Freund's Adjuvant (CFA) on Day 0. […] On Day 21, both groups received a challenge dose of type II collagen (100 μg/animal, intradermally at the base of the tail, in 50 μl CFA). Daily joint measurements were recorded once per day on Days 20-40. Joints were measured using a constant tension caliper (Mitutoyo Digimatic Thickness Gauge). All mice were measured before the start of the study (Day -1) to obtain baseline readings at three joints on the right and left hindlimb (paw thickness, ankle width and knee width) and two joints of the right and left forelimb (paw thickness and elbow width). […] Four of ten mice treated with PIP[4,4,4] died or were sacrificed in extremis, during the treatment period.

[5] = test system: BALB/c splenocytes stimulated with Con A; assay: Mitogen response to Con A (T cell proliferation); type: cell-based, mouse (BALB/c)
Procedure: This study examined the potential immunomodulatory activities of PIP[4,4,4] on mouse spleen cells using in vitro techniques. The effect of the compound on the ability of murine splenocytes to respond to the […] mitogen concanavalin A (Con A) and the B cell mitogen lipopolysaccharide (LPS) was studied. […] In addition, the compound was tested for its effect on the mixed lymphocyte response (MLR). The MLR is an in vitro manifestation of cell-mediated immunity in which T cells respond to differences in major histocompatibility complex (MHC) class II molecules (Ia antigens) expressed on foreign or allogeneic leukocytes (primarily B cells and […]/monocytes).
a. Preparation of cells--Under sterile conditions, spleens were removed from BALB/c (H-2^d) and CBA/J (H-2^k) mice. BALB/c splenocytes were used as responder cells in the mitogen assays and the MLR assays, whereas CBA/J cells were used as stimulator cells in the MLR assays. […] Cells were exposed to various concentrations of the test compounds for the entire culture period. The initial dilutions in medium were filter sterilized to maintain aseptic conditions.
b. Mitogen assays--Con A and LPS were obtained from Sigma Chemical Co. (St. Louis, Mo., U.S.A.). 2×10^5 BALB/c splenocytes were added per well. […] Triplicate wells were set up in 96-well flat-bottom microtiter plates for all treated cultures and positive controls (100% of control) were performed in replicates of nine wells. Plates were incubated at 37° C. in a humidified CO2 incubator for 3 days, pulsed with 1 μCi ^3 H-TdR/well for 6-16 hours, harvested and counted in a liquid scintillation counter. All data were processed using Lotus 1-2-3 and SigmaPlot software.

[6] = Solubility in the vehicle; type: physicochemical; details: distilled water
Procedure: PIP[4,4,4] was obtained as described above. Distilled water was used as the vehicle for in vivo testing. […] Commercially obtained chemicals used were indomethacin and hydrocortisone (Sigma, St. Louis, Mo., U.S.A.), aspirin (Miles Labs., Elkart, IN, U.S.A.), carrageenan (Tokyo Kasei Industry Co., Ltd.), Mycobacterium tuberculosis (Difco Labs., Detroit, Mich., U.S.A.) and carboxymethyl-cellulose (Wako Pure Chemical Industries, Osaka, Japan). Doses of all compounds used were calculated on the basis of the weight of the salt.

[7] = test system: adjuvant-induced arthritis
[8] = 100 mg/kg p.o. daily for 5 consecutive days
[9] = Day 19, individual rat, p.o. × 5: PIP[4,4,4] 100, hydrocortisone 30, indomethacin 5 mg/kg

C(CCNCC1CCNCC1)CNCC1CCNCC1 [PIP[4,4,4], N,N'-Bis(4-piperidinylmethyl)-1,4-butanediamine]
% FINAL INHIBITION ([1]; Day 28-0): 58%
FINAL DAY 28-0 (paw volume) [1]: .801
INITIAL DAY 14-0 (paw volume) [1]: .496
% Inhibition (writhing) ([2]; 100 mg/kg i.p.): 79%
# Writhes (X ± SEM) ([2]; 100 mg/kg i.p., P.Q. 2 mg/kg i.p. 30 min post dosing, **P < 0.01): 3 ± 1 # WRITHES
Analgesic activity (in words) ([2]; i.p., compared with vehicle control): exhibited analgesic activity
Acute anti-inflammatory activity (in words) ([3]; 30 mg/kg intraperitoneally): significantly reducing the extent of carrageenan-induced paw edema
% Edema inhibition ([3]; vs vehicle control, aspirin 150 mg/kg p.o., hydrocortisone 25 mg/kg p.o., PIP[4,4,4] 30 mg/kg i.p., >30% significant): 58%
Toxicity of compound administration (in words) ([4]; 75 mg/kg i.p. daily, dosage decreased to 50 mg/kg on Day 26): overt toxicity
Day on which decrease in joint measurements first evident ([4]; i.p. daily from Day 20, 75 mg/kg): ≤ 25 days
Mice died or sacrificed in extremis ([4]; i.p. daily from Day 20, 75 then 50 mg/kg, during treatment period): Four of ten
Joint measurements / degree of inflammation (in words) ([4]; i.p. daily from Day 20, 75 then 50 mg/kg, vs saline control): Joint measurements decreased; also recorded: significantly less than that in mice treated with equal volumes of saline (control)
Effect on Con A response (in words) [5]: no inhibitory effect on the Con A response
Proliferative response (CPM), Mean ± SD ([5]; Con A 3 μg/ml, drug 0.010 μm): 343389 ± 21927 CPM
Proliferative response (CPM), Mean ± SD ([5]; Con A 3 μg/ml, drug 0.100 μm): 333419 ± 31211 CPM
Proliferative response (CPM), Mean ± SD ([5]; Con A 3 μg/ml, drug 1.000 μm): 340397 ± 25586 CPM
Proliferative response (CPM), Mean ± SD ([5]; Con A 3 μg/ml, drug 10.000 μm): 365771 ± 2876 CPM
Proliferative response (CPM), Mean ± SD ([5]; Con A 3 μg/ml, drug 100.000 μm): 313504 ± 279 CPM
Proliferative response (CPM), Mean ± SD ([5]; Con A 3 μg/ml, drug 1000.000 μm): 273418 ± 14954 CPM
activity at 0.01 µM ([5]; Mus musculus, Splenocyte, 72 h, Con A 3 μg/ml, drug 0.010 μm, read-out: % Control): 173%
activity at 0.1 µM ([5]; Mus musculus, Splenocyte, 72 h, Con A 3 μg/ml, drug 0.100 μm, read-out: % Control): 168%
activity at 1 µM ([5]; Mus musculus, Splenocyte, 72 h, Con A 3 μg/ml, drug 1.000 μm, read-out: % Control): 172%
activity at 10 µM ([5]; Mus musculus, Splenocyte, 72 h, Con A 3 μg/ml, drug 10.000 μm, read-out: % Control): 185%
activity at 100 µM ([5]; Mus musculus, Splenocyte, 72 h, Con A 3 μg/ml, drug 100.000 μm, read-out: % Control): 158%
activity at 1000 µM ([5]; Mus musculus, Splenocyte, 72 h, Con A 3 μg/ml, drug 1000.000 μm, read-out: % Control): 138%
Solubility in the vehicle [6]: completely soluble
Acute and late phase swelling (in words) [7, 8]: reduced both part of the acute phase and inhibited the development of the late phase swelling in the contralateral paw
Signs of polyarthritis in the paws (in words) [7, 8]: did not prevent the appearance of signs of polyarthritis in the paws
Inhibition % B (5-0) ([7]; 5th day after 5 doses, p.o.: PIP[4,4,4] 100, hydrocortisone 30, indomethacin 5 mg/kg, >30% significant): 26%
Net swelling of paw volume A (1-0), average ([7]; Day 1 - Day 0, average, p.o. × 5: PIP[4,4,4] 100, hydrocortisone 30, indomethacin 5 mg/kg): 0.74 mL
Net swelling of paw volume B (5-0), average ([7]; Day 5 - Day 0, average, p.o. × 5: PIP[4,4,4] 100, hydrocortisone 30, indomethacin 5 mg/kg): 1.22 mL
Net swelling of paw volume B (5-0) ([7]; Day 5 - Day 0, individual rat, p.o. × 5: PIP[4,4,4] 100, hydrocortisone 30, indomethacin 5 mg/kg): 1.17 mL and 1.49 mL and 1.04 mL and 1.37 mL and 1.03 mL
Net swelling of paw volume C (5-1), average ([7]; Day 5 - Day 1, average, p.o. × 5: PIP[4,4,4] 100, hydrocortisone 30, indomethacin 5 mg/kg): 0.48 mL
Net swelling of paw volume C (5-1) ([7]; Day 5 - Day 1, individual rat, p.o. × 5: PIP[4,4,4] 100, hydrocortisone 30, indomethacin 5 mg/kg): 0.34 mL and 0.70 mL and 0.50 mL and 0.52 mL
Polyarthritis E (ears) [7, 9]: -
Polyarthritis N (noses) [7, 9]: -
Polyarthritis P (paws) [7, 9]: +
Polyarthritis T (tails) [7, 9]: -
B.W. Gain (18-0), average ([7]; average, p.o. × 5: PIP[4,4,4] 100, hydrocortisone 30, indomethacin 5 mg/kg): 25 g
Inhibition % A (1-0) ([7]; first day, after one dose, p.o.: PIP[4,4,4] 100, hydrocortisone 30, indomethacin 5 mg/kg, >30% significant): 11%
B.W. Gain (18-0) ([7]; individual rat, p.o. × 5: PIP[4,4,4] 100, hydrocortisone 30, indomethacin 5 mg/kg): 20 g and 35 g and 5 g and 30 g
Inhibition % C (5-1) ([7]; paw volume change Day 1 to Day 5, p.o. × 5: PIP[4,4,4] 100, hydrocortisone 30, indomethacin 5 mg/kg, >30% significant): 41%
Net swelling of paw volume D (14-0), average ([7]; untreated paw, Day 14 - Day 0, average, p.o. × 5: PIP[4,4,4] 100, hydrocortisone 30, indomethacin 5 mg/kg): 0.29 mL
Net swelling of paw volume D (14-0) ([7]; untreated paw, Day 14 - Day 0, individual rat, p.o. × 5: PIP[4,4,4] 100, hydrocortisone 30, indomethacin 5 mg/kg): 0.25 mL and 0.43 mL and 0.23 mL and 0.34 mL and 0.20 mL
Inhibition % D (14-0) ([7]; untreated paw, Day 14 relative to Day 0, p.o. × 5: PIP[4,4,4] 100, hydrocortisone 30, indomethacin 5 mg/kg, >30% significant): 36%
Inhibition % F (18-14) ([7]; untreated paw, Day 14 to Day 18, p.o. × 5: PIP[4,4,4] 100, hydrocortisone 30, indomethacin 5 mg/kg, >30% significant): 47%
Net swelling of paw volume E (18-0), average ([7]; untreated paw, Day 18 - Day 0, average, p.o. × 5: PIP[4,4,4] 100, hydrocortisone 30, indomethacin 5 mg/kg): 0.45 mL
Net swelling of paw volume E (18-0) ([7]; untreated paw, Day 18 - Day 0, individual rat, p.o. × 5: PIP[4,4,4] 100, hydrocortisone 30, indomethacin 5 mg/kg): 0.35 mL and 0.55 mL and 0.37 mL and 0.45 mL and 0.53 mL
Net swelling of paw volume F (18-14), average ([7]; untreated paw, Day 18 - Day 14, average, p.o. × 5: PIP[4,4,4] 100, hydrocortisone 30, indomethacin 5 mg/kg): 0.16 mL
Net swelling of paw volume F (18-14) ([7]; untreated paw, Day 18 - Day 14, individual rat, p.o. × 5: PIP[4,4,4] 100, hydrocortisone 30, indomethacin 5 mg/kg): 0.10 mL and 0.12 mL and 0.14 mL and 0.11 mL and 0.33 mL
Inhibition % E (18-0) ([7]; untreated paw, Day 18 relative to Day 0, p.o. × 5: PIP[4,4,4] 100, hydrocortisone 30, indomethacin 5 mg/kg, >30% significant): 40%
Weight gain reductions (in words) ([7]; vs vehicle-treated animals, 18 day study): did not affect weight gain reductions
